{"source": "PubChem BioAssay AID435004", "about": "(Broad Institute, 2010)", "tested_on": "NIH3T3-HGL HSF1 luciferase reporter, MG132, 8 h", "experiment": "HSF1 potentiators in luciferase reporter cells, confirmation, cell-based, NIH3T3, luminescence, dose retest (AID 435004)", "note": "pEC50: −log10 of the molar value. Records with an inconclusive call do not appear. Activity calls are given as the source filed them.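 The calls were made as follows: active = EC50 at most a set number of log units above the top tested dose; inconclusive = flat curve fit with activity between 30% and 70%, or poor fit; inactive = EC50 further above the top dose than that.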", "data": [{"smiles": "C#CCOCCOCCOCCNc1nc(N2CCN(C(=O)[C@H](Cc3cc4ccccc4[nH]3)n3cc(C(N)CC(C)C)nn3)CC2)nc(N2CCN(C(=O)[C@H](CCC(=O)O)n3cc(C(N)[C@H](C)CC)nn3)CC2)n1", "note": "(stereo partly drawn)", "values": [{"measurement": "EC50", "result": "> 26 µM (inactive)"}]}, {"smiles": "CC(C)CCN=CC1=C(O)CC(c2ccccc2)CC1=O", "note": "(stereo not drawn)", "values": [{"measurement": "EC50", "result": "> 26 µM (inactive)"}]}, {"smiles": "O=C1CC(c2ccccc2Cl)CC(O)=C1C=Nc1ccccc1", "note": "(stereo not drawn)", "values": [{"measurement": "pEC50", "result": 5.33}]}]}
